According to patent US11498920B2, “4-(1H-imidazol-5-yl)-1H-pyrrolo[2, 3-b] pyridines for use in the treatment of leukaemias, lymphomas and solid tumors” (MASARYKOVA UNIVERZITA, priority 2018, dated 2022):

How the values were obtained:
Type in all cases: cell-based
primary CLL = assay: Cytotoxicity on panel of cell lines, TMRE viability (Example II.2); details: Homo sapiens, 24 hours, mean, control = 1, read-out: cell viability relative to control, primary CLL
Experimental: (§1) The leukemia and lymphoma-derived cell lines [MEC-1 cell line (derived from chronic lymphocytic leukemia—CLL), Nalm-16 (acute lymphocytic leukemia—ALL), K562 (chronic myeloid leukemia—CML), HL-60 (acute myeloid leukemia—AML), Maver-1 and Mino (mantle cell lymphoma—MCL), BL-41 (Burkitt lymphoma—BL), WSU-NHL (follicular lymphoma—FL), SUDHL (diffuse large B-cell lymphoma—DLBCL)], primary CLL cells and nonmalignant control primary cells were cultured in suspension in flasks under the following conditions: RPMI 1640 medium (Hyclone) supplemented with 10% fetal bovine serum (FBS, Gibco) and 1% penicillin/streptomycin (Life Technologies), 37° C., 5% CO2 and 95% relative humidity, with optimal culture cell density 5×10^6 cells/mL in case of primary cells and 0.5-1×10^6 cells/mL in case of cell lines. The adherent cell lines [A375 (derived from malignant melanoma), MDA-MB-231 and MCF-7 (breast cancer), MIA-PA-CA and PANC1 (pancreatic cancer), PC3 (prostate cancer), OVCAR4 (ovarian cancer) and HEPG2 (hepatocellular carcinoma)] were cultured on plates under the same conditions using RPMI1640 or DMEM medium (Gibco) according to instructions provided by the distributor (DSMZ/ATCC).
(§2) The tested cell lines were incubated with inhibitors at 30 μM concentration or corresponding amount of solvent (DMSO, Sigma Aldrich) in standard culture conditions, seeded as 10^5 cells/500 μl per well in a 24-well plate. Experiments were performed in technical duplicates and 2-3 biological repetitions per cell line. Viability of cells was assessed after 24 hours.
(§3) Relative values are presented as a mean value, showing ratio to the effect of control. Relative value <1=lower viability than control condition.

Mino = assay: as above; details: Homo sapiens, 24 hours, mean, control = 1, read-out: cell viability relative to control, Mino (MCL)
Experimental: as §1, §2, §3

MCF-7 = assay: as above; details: Homo sapiens, MCF7, 24 hours, mean, control = 1, read-out: cell viability relative to control, MCF-7 (breast cancer)
Experimental: as §1, §2, §3

Maver1 = assay: as above; details: Homo sapiens, 24 hours, mean, control = 1, read-out: cell viability relative to control, Maver1 (MCL)
Experimental: as §1, §2, §3

SUDHL = assay: as above; details: 24 hours, mean, control = 1, read-out: cell viability relative to control, SUDHL (DLBCL)
Experimental: as §1, §2, §3

Nalm16 = assay: as above; details: 24 hours, mean, control = 1, read-out: cell viability relative to control, Nalm16 (ALL)
Experimental: as §1, §2, §3

BL-41 = assay: as above; details: Homo sapiens, 24 hours, mean, control = 1, read-out: cell viability relative to control, BL-41 (BL)
Experimental: as §1, §2, §3

MEC-1 = assay: as above; details: Homo sapiens, MEC1, 24 hours, mean, control = 1, read-out: cell viability relative to control, MEC-1 (CLL)
Experimental: as §1, §2, §3

primary CLL cells = assay: Cytotoxicity, TMRE flow cytometry viability, primary CLL cells (Example II.1); details: Homo sapiens, CLL cell, 6 hours, TMRE positive cells normalized to control, ratio to PF670462, <1 = higher cytotoxicity than PF670462, read-out: Viability of cells, Compound of formula I (100 μM), relative to PF670462 (100 μM), CLL primary cells
[1] = tested on: Maver-1 cells (mantle cell lymphoma); assay: Cytotoxicity, TMRE flow cytometry viability, Maver-1 cells (Example II.1); details: Homo sapiens, Maver1, 24 hours, TMRE positive cells normalized to control, ratio to PF670462, <1 = higher cytotoxicity than PF670462, read-out: Viability of cells, Compound of formula I (100 μM), relative to PF670462 (100 μM), Maver-1 cells (mantle cell lymphoma)
HEPG2 = assay: Cytotoxicity on panel of cell lines, TMRE viability (Example II.2); details: Homo sapiens, 24 hours, mean, control = 1, read-out: cell viability relative to control, HEPG2 (hepatocellular carcinoma)
Experimental: as §1, §2, §3

OVCAR4 = assay: as above; details: Homo sapiens, OVCAR-4, 24 hours, mean, control = 1, read-out: cell viability relative to control, OVCAR4 (ovarian cancer)
Experimental: as §1, §2, §3

PANC1 = assay: as above; details: Homo sapiens, PANC-1, 24 hours, mean, control = 1, read-out: cell viability relative to control, PANC1 (pancreatic cancer)
Experimental: as §1, §2, §3

A375 = assay: as above; details: Homo sapiens, A-375, 24 hours, mean, control = 1, read-out: cell viability relative to control, A375 (melanoma)
Experimental: as §1, §2, §3

WSU-NHL = assay: as above; details: Homo sapiens, 24 hours, mean, control = 1, read-out: cell viability relative to control, WSU-NHL (FL)
Experimental: as §1, §2, §3

MIA-PA-CA = assay: as above; details: Homo sapiens, MIA PaCa-2, 24 hours, mean, control = 1, read-out: cell viability relative to control, MIA-PA-CA (pancreatic cancer)
Experimental: as §1, §2, §3

HL60 = assay: as above; details: Homo sapiens, HL-60, 24 hours, mean, control = 1, read-out: cell viability relative to control, HL60 (AML)
Experimental: as §1, §2, §3

PC3 = assay: as above; details: Homo sapiens, PC-3, 24 hours, mean, control = 1, read-out: cell viability relative to control, PC3 (prostate cancer)
Experimental: as §1, §2, §3

Row | Compound | viability at 30 µM (primary CLL) [%] | viability at 30 µM (Mino) [%] | viability at 30 µM (MCF-7) [%] | viability at 30 µM (Maver1) [%] | viability at 30 µM (SUDHL) [%] | viability at 30 µM (Nalm16) [%] | viability at 30 µM (BL-41) [%] | viability at 30 µM (MEC-1) [%] | viability at 100 µM (primary CLL cells) [%] | viability at 100 µM [1] [%] | viability at 30 µM (HEPG2) [%] | viability at 30 µM (OVCAR4) [%] | viability at 30 µM (PANC1) [%] | viability at 30 µM (A375) [%] | viability at 30 µM (WSU-NHL) [%] | viability at 30 µM (MIA-PA-CA) [%] | viability at 30 µM (HL60) [%] | viability at 30 µM (PC3) [%]
1 | Fc1ccc(-c2ncn(Cc3ccoc3)c2-c2ccnc3[nH]ccc23)cc1 [Preparative Example 23] | 68 | 65 | 31 | 71 | 67 | 20 | 57 | 84 | 37 | 46 | – | – | – | – | – | – | – | –
2 | COCCCn1cnc(-c2ccc(F)cc2)c1-c1ccnc2[nH]ccc12 [Preparative Example 24, 4-(4-(4-fluorophenyl)-1-(3-methoxypropyl)-1H-imidazol-5-yl)-1H-pyrrolo[2,3-b]pyridine] | 85 | 80 | – | 72 | – | 75 | 76 | – | 30 | – | – | – | – | – | – | – | – | –
3 | Fc1ccc(-c2ncn(CC3CCCO3)c2-c2ccnc3[nH]ccc23)cc1 (stereo not shown) [Preparative Example 27, 4-(4-(4-fluorophenyl)-1-((tetrahydrofuran-2-yl)methyl)-1H-imidazol-5-yl)-1H-pyrrolo[2,3-b]pyridine] | – | – | – | 78 | – | – | – | – | – | – | 85 | 84 | – | – | – | – | – | –
4 | Fc1ccc(-c2ncn(C3CCNCC3)c2-c2ccnc3[nH]ccc23)cc1 [Preparative Example 37, 4-(4-(4-fluorophenyl)-1-(piperidin-4-yl)-1H-imidazol-5-yl)-1H-pyrrolo[2,3-b]pyridine] | 39 | – | – | – | 89 | 50 | 75 | – | 51 | – | – | 82 | 67 | – | – | – | – | –
5 | Fc1ccc(-c2ncn(-c3ccccc3)c2-c2ccnc3[nH]ccc23)cc1 [Preparative Example 47] | 81 | – | – | – | – | 57 | 73 | – | 78 | – | – | 76 | 83 | – | – | – | – | –
6 | c1cc(-c2c(C3CCCCC3)ncn2C2CCCCC2)c2cc[nH]c2n1 [Preparative Example 67, 4-(1,4-dicyclohexyl-1H-imidazol-5-yl)-1H-pyrrolo[2,3-b]pyridine] | – | 72 | – | 73 | – | 40 | 76 | – | 66 | 71 | – | – | – | 55 | 84 | – | – | –
7 | CS(=O)(=O)N[C@H]1CC[C@@H](n2cnc(-c3ccc(F)cc3)c2-c2ccnc3[nH]ccc23)CC1 [Preparative Example 74, N-(cis-4-(4-(4-fluorophenyl)-5-(1H-pyrrolo[2,3-b]pyridin-4-yl)-1H-imidazol-1-yl)cyclohexyl)methanesulfonamide] | – | – | 72 | 84 | – | 78 | – | – | 73 | 46 | – | – | – | – | – | – | – | –
8 | Fc1ccc(-c2ncn(Cc3ccco3)c2-c2ccnc3[nH]ccc23)cc1 [Preparative Example 81, 4-(4-(4-fluorophenyl)-1-(furan-2-ylmethyl)-1H-imidazol-5-yl)-1H-pyrrolo[2,3-b]pyridine] | 77 | 37 | 68 | 51 | – | – | – | – | 60 | 10 | 58 | – | – | – | 68 | – | – | –
9 | Cn1cnc(Cn2cnc(-c3ccc(F)cc3)c2-c2ccnc3[nH]ccc23)n1 [Preparative Example 106, 4-(4-(4-fluorophenyl)-1-((1-methyl-1H-1,2,4-triazol-3-yl)methyl)-1H-imidazol-5-yl)-1H-pyrrolo[2,3-b]pyridine] | – | 85 | 65 | 54 | – | – | – | – | – | 7 | 24 | 89 | – | 79 | 82 | 68 | – | –
10 | Fc1ccc(-c2ncn(C3CCCCC3)c2-c2c(F)cnc3[nH]ccc23)cc1 [Preparative Example 147, 4-(1-cyclohexyl-4-(4-fluorophenyl)-1H-imidazol-5-yl)-5-fluoro-1H-pyrrolo[2,3-b]pyridine] | 37 | 1 | 41 | 0 | 1 | – | 21 | 38 | 8 | 3 | 41 | 69 | 67 | 85 | 38 | 45 | 84 | 57
11 | Fc1ccc(-c2ncn(C3CCCCC3)c2-c2ccnc3[nH]cc(F)c23)cc1 [Preparative Example 149, 4-(1-cyclohexyl-4-(4-fluorophenyl)-1H-imidazol-5-yl)-3-fluoro-1H-pyrrolo[2,3-b]pyridine] | 68 | 1 | 65 | 1 | 21 | – | 22 | 33 | 11 | 0 | 77 | – | – | – | 26 | 87 | 79 | 86
12 | Fc1ccc(-c2ncn(C3CCCCC3)c2-c2ccnc3[nH]ccc23)cc1F [Preparative Example 173] | 62 | 1 | 52 | 0 | 3 | – | 5 | 9 | 2 | 1 | 58 | – | – | – | 16 | 74 | 77 | –
